Results reported in US10602743B2, “Method of inducing drought/salt tolerance using Bacillus megaterium” (Marrone Bio Innovations, Inc., priority 2012, dated 2020).

How the values were obtained:
Bacillus megaterium H491 = experiment: Antibiotic susceptibility, antibiotic disks on Muller-Hinton medium; type: cell-based; parameters: key: +++ (very); ++ (somewhat); + (marginally); resistance is indicated by (−); conditions: antibiotic disk, 48-hour incubation at 25° C.
Protocol: (§1) Antibiotic susceptibility of Bacillus megaterium strains H491, J142 and M018 was tested using antibiotic disks on Muller-Hinton medium as described in PML Microbiological's technical data sheet #535.

Bacillus megaterium J142 = experiment: as above; type: cell-based; parameters: key: +++ (very); ++ (somewhat); + (marginally); resistance is indicated by (−); conditions: antibiotic disk, 48-hour incubation at 25° C.
Protocol: as §1

Bacillus megaterium M018 = experiment: as above; type: cell-based; parameters: key: +++ (very); ++ (somewhat); + (marginally); resistance is indicated by (−); conditions: antibiotic disk, 48-hour incubation at 25° C.
Protocol: as §1

[1] = tested on: Bacillus megaterium strain H491; experiment: Chemical sensitivity, Biolog Phenotypic Microarray; type: cell-based; conditions: Biolog Phenotypic Microarray; for Resistance of H491 observed in wells containing compound: at a maximum concentration of 4 ug; for H491 susceptible to compound: 25° C.
Vero cells = conditions: cited from earlier work

Compound | Susceptibility degree of H491 (Bacillus megaterium H491) | Susceptibility degree of J142 (Bacillus megaterium J142) | Susceptibility degree of M018 (Bacillus megaterium M018) | Resistance of H491 observed in wells containing compound [1] | H491 susceptible to compound [1] | Cytotoxicity against Vero cells (50% inhibition of cell growth) (Vero cells) [μg/well]
CC1(C)S[C@@H]2[C@H](NC(=O)[C@H](N)c3ccccc3)C(=O)N2[C@H]1C(=O)O [Ampicillin] | +++ | +++ | ++ | Resistance |  | 
CO/N=C(\C(=O)N[C@@H]1C(=O)N2C(C(=O)O)=C(COC(N)=O)CS[C@H]12)c1ccco1 [Cefuroxime] | +++ | +++ | +++ |  | susceptible | 
O=C(N[C@H](CO)[C@H](O)c1ccc([N+](=O)[O-])cc1)C(Cl)Cl [Chloramphenicol] | +++ | +++ | ++ |  |  | 
O=C(O)c1cn(C2CC2)c2cc(N3CCNCC3)c(F)cc2c1=O [Ciprofloxacin] | +++ | +++ | +++ |  |  | 
CC[C@H]1OC(=O)[C@H](C)[C@@H](O[C@H]2C[C@@](C)(OC)[C@@H](O)[C@H](C)O2)[C@H](C)[C@@H](O[C@@H]2O[C@H](C)C[C@H](N(C)C)[C@H]2O)[C@](C)(O)C[C@@H](C)C(=O)[C@H](C)[C@@H](O)[C@]1(C)O [Erythromycin] | +++ | +++ | +++ |  | susceptible | 
C[C@@H](O)[C@H]1C(=O)N2C(C(=O)O)=C(SCCN=CN)C[C@H]12 [Imipenem] | +++ | +++ | +++ |  |  | 
NC[C@H]1O[C@H](O[C@H]2[C@H](O)[C@@H](O[C@H]3O[C@H](CO)[C@@H](O)[C@H](N)[C@H]3O)[C@H](N)C[C@@H]2N)[C@H](O)[C@@H](O)[C@@H]1O [Kanamycin] | +++ | +++ | +++ |  |  | 
Nc1ncnc2c1ncn2[C@@H]1O[C@H](CO)[C@H]1CO [Oxetanocin, 9-[(2R,3R,4S)-3,4-bis(hydroxymethyl)-2-oxetanyl]adenine] |  |  |  |  |  | 132.6
CN(C)[C@@H]1C(O)=C(C(N)=O)C(=O)[C@@]2(O)C(O)=C3C(=O)c4c(O)cccc4[C@@](C)(O)[C@H]3[C@H](O)[C@@H]12 [Oxytetracycline] | +++ | +++ | +++ |  |  | 
CCN1CCN(C(=O)N[C@@H](C(=O)N[C@@H]2C(=O)N3[C@@H]2SC(C)(C)[C@@H]3C(=O)O)c2ccccc2)C(=O)C1=O [Piperacillin] | +++ | + | ++ |  |  | 
[H]/N=C(/N)N[C@H]1[C@H](O)[C@@H](O)[C@H](O[C@@H]2O[C@@H](C)[C@](O)(C=O)[C@H]2O[C@@H]2O[C@@H](CO)[C@H](O)[C@@H](O)[C@@H]2NC)[C@@H](N/C(N)=N\[H])[C@@H]1O [Streptomycin] | +++ | +++ | + |  | susceptible | 
CN(C)[C@@H]1C(O)=C(C(N)=O)C(=O)[C@@]2(O)C(O)=C3C(=O)c4c(O)cccc4[C@@](C)(O)[C@H]3C[C@@H]12 [Tetracycline] | +++ | +++ | +++ |  |  | 
Gentamicin | +++ | +++ | +++ | Resistance |  | 
Penicillin | +++ | − | ++ |  |  | 
